For this assay, the system named is P388 leukemia ip, CD2F1 mice, survival T/C. As to the kind of experiment: NCI In Vivo Anticancer Drug Screen. Data for tumor model P388 Leukemia (intraperitoneal) in CD2F1 (CDF1) mice. Particulars: endpoint: median survival time, higher = longer survival. The gist of the method: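 Mice carrying the transplanted tumor received test compound or vehicle. Survival was recorded in each group, and the value is the treated-group measurement divided by that of the vehicle-treated control group.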

The mark [1] stands for this setting: dose: 100.0 mg/kg/injection, schedule: Q01DX009 (ip), vehicle: saline.
Setting [2] is: dose: 200.0 mg/kg/injection, schedule: Q01DX009 (ip), vehicle: saline.
[3] abbreviates: dose: 50.0 mg/kg/injection, schedule: Q01DX009 (ip), vehicle: saline with Tween-80.
Setting [4] is: dose: 100.0 mg/kg/injection, schedule: Q01DX009 (ip), vehicle: saline with Tween-80.
Where [5] appears, read: dose: 200.0 mg/kg/injection, schedule: Q01DX009 (ip), vehicle: saline with Tween-80.

17 compounds from PubChem BioAssay AID330 (DTP/NCI, 2004) can be followed below.

Where “and” joins values, the source holds several entries; their conditions need not be identical. Identical values can stand only once. Toxic doses and inconclusive results are not listed.

For `COc1ccc(CCN2CCC(CC3CCCCN3)CC2)cc1OC` (centres undefined), the T/C is 103 % of control (dose: 12.5 mg/kg/injection, schedule: Q01DX009 (ip), vehicle: distilled water + alcohol); 112 % of control (dose: 25.0 mg/kg/injection, schedule: Q01DX009 (ip), vehicle: distilled water + alcohol); 105 % of control (dose: 50.0 mg/kg/injection, schedule: Q01DX009 (ip), vehicle: distilled water + alcohol); 103 % of control (dose: 100.0 mg/kg/injection, schedule: Q01DX009 (ip), vehicle: distilled water + alcohol).

`CCOC(=O)CCc1ccc2c(c1)OCO2`: the T/C by setting is: under setting [1], 100 % of control; (dose: 100.0 mg/kg/injection, schedule: Q04DX003 (ip), vehicle: saline with Tween-80) 91 % of control; under setting [2], 104 % of control; (dose: 200.0 mg/kg/injection, schedule: Q04DX003 (ip), vehicle: saline with Tween-80) 100 % of control; (dose: 400.0 mg/kg/injection, schedule: Q01DX009 (ip), vehicle: saline) 113 % of control; (dose: 400.0 mg/kg/injection, schedule: Q04DX003 (ip), vehicle: saline with Tween-80) 91 % of control.

`Cc1oc(C)c(-c2ccccc2)c1C(=O)N1CCN(C)CC1`: the T/C (dose: 60.0 mg/kg/injection, schedule: Q01DX005 (ip), vehicle: saline with Tween-80) is 98 % of control and the T/C (dose: 120.0 mg/kg/injection, schedule: Q01DX005 (ip), vehicle: saline with Tween-80) was 98 % of control.

Consider `Cc1ccc(NC(=O)N2c3ccccc3SC2c2ccco2)c(C)c1` (centres undefined), for which the T/C runs as follows: (dose: 12.5 mg/kg/injection, schedule: Q01DX009 (ip), vehicle: saline with Tween-80) 92 % of control; (dose: 25.0 mg/kg/injection, schedule: Q01DX009 (ip), vehicle: saline with Tween-80) 103 % of control; under setting [3], 86 % of control and 92 % of control.

For `N#CC1OC(COC(=O)c2ccccc2)C(OC(=O)c2ccccc2)C1OC(=O)c1ccccc1` (centres undefined), the T/C runs as follows: (dose: 12.5 mg/kg/injection, schedule: Q01DX009 (ip), vehicle: distilled water + Tween-80) 90 % of control; (dose: 25.0 mg/kg/injection, schedule: Q01DX009 (ip), vehicle: distilled water + Tween-80) 89 % of control; (dose: 50.0 mg/kg/injection, schedule: Q01DX009 (ip), vehicle: distilled water + Tween-80) 88 % of control; under setting [3], 99 % of control; (dose: 100.0 mg/kg/injection, schedule: Q01DX009 (ip), vehicle: distilled water + Tween-80) 98 % of control; under setting [4], 94 % of control. Moreover, the T/C was 101 % of control (dose: 200.0 mg/kg/injection, schedule: Q01DX009 (ip), vehicle: distilled water + Tween-80) and 94 % of control under setting [5].

As for `COc1cccc2c1C(=O)c1c(O)c3c(c(O)c1C2=O)C[C@@](O)(C(C)O)C[C@@H]3OC1CC(N2CCOCC2C#N)C(O)C(C)O1` (some centres undefined), the T/C was 120 % of control (dose: 0.03 mg/kg/injection, schedule: Q04DX003 (ip), vehicle: water); 166 % of control (dose: 0.1 mg/kg/injection, schedule: Q04DX003 (ip), vehicle: water); 107 % of control (dose: 12.5 micrograms/kg/injection, schedule: Q04DX003 (ip), vehicle: water); 101 % of control (dose: 25.0 micrograms/kg/injection, schedule: Q04DX003 (ip), vehicle: water); 106 % of control (dose: 50.0 micrograms/kg/injection, schedule: Q04DX003 (ip), vehicle: water); 120 % of control (dose: 100.0 micrograms/kg/injection, schedule: Q04DX003 (ip), vehicle: water).

For the compound `COc1cccc2c1C(=O)c1c(O)c3c(c(O)c1C2=O)C[C@@](O)(C(C)NCCCO)C[C@@H]3OC1CC(N)C(O)C(C)O1` (some centres undefined), the T/C was 122 % of control (dose: 0.5 mg/kg/injection, schedule: Q01DX009 (ip), vehicle: water); 150 % of control (dose: 1.0 mg/kg/injection, schedule: Q01DX009 (ip), vehicle: water); 154 % of control and 163 % of control (dose: 2.0 mg/kg/injection, schedule: Q01DX009 (ip), vehicle: water); 163 % of control and 173 % of control (dose: 4.0 mg/kg/injection, schedule: Q01DX009 (ip), vehicle: water); 174 % of control and 175 % of control (dose: 8.0 mg/kg/injection, schedule: Q01DX009 (ip), vehicle: water); 201 % of control (dose: 16.0 mg/kg/injection, schedule: Q01DX009 (ip), vehicle: water).

With `O=C(NC(C(=O)O)C1CC(Cl)=NO1)OCc1ccc([N+](=O)[O-])cc1` (centres undefined), the T/C (dose: 6.2 mg/kg/injection, schedule: Q04DX003 (ip), vehicle: other) was 108 % of control and the T/C (dose: 12.5 mg/kg/injection, schedule: Q04DX003 (ip), vehicle: other) is 117 % of control.

Regarding `CCOc1ccc2c(=O)c(C(=O)O)c[nH]c2c1`, the T/C (dose: 50.0 mg/kg/injection, schedule: Q01DX009 (ip), vehicle: saline) was 107 % of control; the T/C under setting [1] was 107 % of control; the T/C under setting [2] is 108 % of control.

With `CCCCCCCCCCCCCCC1(O)OC(=O)C(C)=C1C` (centres undefined), the T/C is, setting by setting: (dose: 12.5 mg/kg/injection, schedule: Q04DX003 (ip), vehicle: saline with Tween-80) 106 % of control; (dose: 25.0 mg/kg/injection, schedule: Q04DX003 (ip), vehicle: saline with Tween-80) 103 % of control; (dose: 50.0 mg/kg/injection, schedule: Q04DX003 (ip), vehicle: saline with Tween-80) 106 % of control.

Regarding `CC(C)(C)N=C(CCN1CCCCC1)Nc1ccc([N+](=O)[O-])cc1`, the T/C under setting [3] is 112 % of control, the T/C under setting [4] was 110 % of control and the T/C under setting [5] was 103 % of control.

With `Cc1ccc(S(=O)(=O)N/N=C/C(N)=O)cc1`, the T/C runs as follows: (dose: 12.5 mg/kg/injection, schedule: Q01DX009 (ip), vehicle: other) 101 % of control; (dose: 25.0 mg/kg/injection, schedule: Q01DX009 (ip), vehicle: other) 101 % of control; (dose: 50.0 mg/kg/injection, schedule: Q01DX009 (ip), vehicle: other) 96 % of control; (dose: 100.0 mg/kg/injection, schedule: Q01DX009 (ip), vehicle: other) 104 % of control; (dose: 200.0 mg/kg/injection, schedule: Q01DX009 (ip), vehicle: other) 118 % of control; (dose: 400.0 mg/kg/injection, schedule: Q01DX009 (ip), vehicle: other) 101 % of control.

For the compound `O=[N+]([O-])c1ccc(C2OCC3CSCN32)cc1` (centres undefined), the T/C is, setting by setting: (dose: 100.0 mg/kg/injection, schedule: Q04DX002 (ip), vehicle: saline with Tween-80) 107 % of control; (dose: 200.0 mg/kg/injection, schedule: Q04DX002 (ip), vehicle: saline with Tween-80) 97 % of control; (dose: 400.0 mg/kg/injection, schedule: Q04DX002 (ip), vehicle: saline with Tween-80) 97 % of control.

Consider `COc1cc(C2Oc3c(OC)cc(CC4C(=O)OCC4Cc4ccc(OC)c(OC)c4)cc3C2CO)ccc1O` (centres undefined), for which the T/C is, setting by setting: (dose: 2.5 mg/kg/injection, schedule: Q01DX009 (ip), vehicle: saline with Tween-80) 104 % of control; (dose: 5.0 mg/kg/injection, schedule: Q01DX009 (ip), vehicle: saline with Tween-80) 102 % of control; (dose: 10.0 mg/kg/injection, schedule: Q01DX009 (ip), vehicle: saline with Tween-80) 101 % of control; (dose: 20.0 mg/kg/injection, schedule: Q01DX009 (ip), vehicle: saline with Tween-80) 101 % of control.

On to `COc1ccccc1C1OCC(C)(C)N1C` (centres undefined), for which the T/C (dose: 18.75 mg/kg/injection, schedule: Q01DX001 (ip), vehicle: saline sonified) was 100 % of control; the T/C (dose: 37.5 mg/kg/injection, schedule: Q01DX001 (ip), vehicle: saline sonified) was 95 % of control; the T/C (dose: 75.0 mg/kg/injection, schedule: Q01DX001 (ip), vehicle: saline sonified) was 110 % of control; the T/C (dose: 75.0 mg/kg/injection, schedule: Q04DX003 (ip), vehicle: saline with Tween-80) is 105 % of control; the T/C (dose: 150.0 mg/kg/injection, schedule: Q04DX003 (ip), vehicle: saline with Tween-80) was 105 % of control; the T/C (dose: 300.0 mg/kg/injection, schedule: Q04DX003 (ip), vehicle: saline with Tween-80) is 100 % of control.

As for `CCOC(=O)/C=C/C(=O)NNS(=O)(=O)CC(N)C(=O)O` (centres undefined), the T/C reads like this: (dose: 100.0 mg/kg/injection, schedule: Q04DX003 (ip), vehicle: acid diluted with saline) 105 % of control; (dose: 200.0 mg/kg/injection, schedule: Q04DX003 (ip), vehicle: acid diluted with saline) 109 % of control.

For the compound `COc1ccccc1N=NC1=C2Nc3ccccc3N=C1N(c1ccccc1OC)C(=S)N2c1ccccc1C`, the T/C is 102 % of control (dose: 50.0 mg/kg/injection, schedule: Q01DX005 (ip), vehicle: saline with Tween-80) and 103 % of control (dose: 100.0 mg/kg/injection, schedule: Q01DX005 (ip), vehicle: saline with Tween-80).
